Assay results reported in US10723723B2, “Substituted bicycle heterocyclic derivatives useful as ROMK channel inhibitors” (BRISTOL-MYERS SQUIBB COMPANY, priority 2016, dated 2020).

Tests used:
Type in all cases: cell-based
[1] = target: hERG channels (Homo sapiens (Human), UniProt Q12809); assay: hERG Manual Patch Clamp Assay (HEK 293 cells stably expressing hERG channels); details: human, HEK 293 cells stably expressing hERG channels, pH 7.4
Experimental: hERG electrophysiology assay: The experimental compounds were assessed for hERG activity on HEK 293 cells stably expressing hERG channels using patch clamp technique. Coverslips plated with hERG expressing cells were placed in the experimental chamber and were perfused with a solution composed of (in mM): 140 NaCl, 4 KCl, 1.8 CaCl2), 1 MgCl2, 10 Glucose, 10 HEPES (pH 7.4, NaOH) at room temperature. Borosilicate patch pipettes had tip resistances of 2-4 Mohms when filled with an internal solution containing: 130 KCl, 1 MgCl2, 1 CaCl2), 10 EGTA, 10 HEPES, 5 ATP-K2 (pH 7.2, KOH). The cells were clamped at −80 mV in whole cell configuration using an Axopatch 200B (Axon instruments, Union City, Calif.) patch clamp amplifier controlled by pClamp (Axon instruments) software. Upon formation of a gigaseal, the following voltage protocol was repeatedly (0.05 Hz) applied to record tail currents: depolarization step from −80 mV to +20 mV for 2 seconds followed by a hyperpolarization step to −65 mV (3 seconds) to elicit tail currents. Compounds were applied after stabilization of tail current. First, tail currents were recorded in presence of extracellular solution alone (control) and subsequently, in extracellular solution containing increasing compound concentrations. Each compound concentration was applied for 2-5 minutes. The percentage inhibition at each concentration was calculated as reduction in peak tail current with respect to the peak tail current recorded in the presence of control solution. Data analysis was performed in a custom made template. The percent inhibitions at different concentrations were plotted to obtain a concentration response curve, which was subsequently fitted with a four parameter equation to calculate hERG IC50 value.
A lower hERG % Inhibition value indicates less inhibition of the hERG current

[2] = target: hROMK (Homo sapiens (Human), UniProt P48048); assay: ROMK Manual Patch Clamp Assay; details: whole-cell manual patch clamp, hROMK current; read-out: ROMK EP IC50
Experimental: Cell culture conditions: Cells were maintained in conditions similar to those for Thallium flux assay. hROMK channel expression was induced by adding 0.6 μg/ml of Doxycycline 16-24 hrs prior to the experiments. On the day of experiment, the cells were dissociated using Versene, resuspended in growth media and plated onto coverslips 15 minutes prior to use.
The cells were voltage clamped at −75 mV in whole-cell configuration using an Axopatch 200b or Multiclamp 700b (Molecular Devices) amplifier controlled by pClamp Software (Molecular Devices). The current was recorded by applying a voltage step to −120 mV every 10 seconds. […] At the end of the experiment, the cells were perfused with bath solution containing 2 mM Ba^2+ to isolate the contribution of hROMK current.
Data analysis: Raw current values (5 traces each for control, different compound concentration and Ba^2+ treatment groups) were exported from Clampfit into Microsoft Excel where the current remaining after application of Ba^2+ was subtracted from raw current to obtain hROMK specific current.

[3] = target: hROMK (human Kir1.1) (Homo sapiens (Human), UniProt P48048); assay: Thallium Flux Assay (FluxOR, CHO T-Rex hROMK stable cell line); details: CHO T-Rex hROMK cells, 10-point concentration response curve; read-out: Human ROMK TH Flux IC50
hROMK (human Kir1.1), sequence (P48048 whole entry): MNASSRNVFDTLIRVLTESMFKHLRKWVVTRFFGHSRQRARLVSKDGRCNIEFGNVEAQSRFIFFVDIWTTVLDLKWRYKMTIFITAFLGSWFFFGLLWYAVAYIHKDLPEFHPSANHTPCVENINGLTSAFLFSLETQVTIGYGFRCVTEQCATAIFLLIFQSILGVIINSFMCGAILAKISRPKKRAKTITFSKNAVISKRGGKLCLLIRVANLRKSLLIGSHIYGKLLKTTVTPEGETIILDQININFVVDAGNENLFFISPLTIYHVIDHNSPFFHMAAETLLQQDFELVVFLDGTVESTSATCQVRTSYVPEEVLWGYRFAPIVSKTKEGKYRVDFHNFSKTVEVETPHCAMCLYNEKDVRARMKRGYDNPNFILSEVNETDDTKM

hERG channels, sequence (Q12809 whole entry): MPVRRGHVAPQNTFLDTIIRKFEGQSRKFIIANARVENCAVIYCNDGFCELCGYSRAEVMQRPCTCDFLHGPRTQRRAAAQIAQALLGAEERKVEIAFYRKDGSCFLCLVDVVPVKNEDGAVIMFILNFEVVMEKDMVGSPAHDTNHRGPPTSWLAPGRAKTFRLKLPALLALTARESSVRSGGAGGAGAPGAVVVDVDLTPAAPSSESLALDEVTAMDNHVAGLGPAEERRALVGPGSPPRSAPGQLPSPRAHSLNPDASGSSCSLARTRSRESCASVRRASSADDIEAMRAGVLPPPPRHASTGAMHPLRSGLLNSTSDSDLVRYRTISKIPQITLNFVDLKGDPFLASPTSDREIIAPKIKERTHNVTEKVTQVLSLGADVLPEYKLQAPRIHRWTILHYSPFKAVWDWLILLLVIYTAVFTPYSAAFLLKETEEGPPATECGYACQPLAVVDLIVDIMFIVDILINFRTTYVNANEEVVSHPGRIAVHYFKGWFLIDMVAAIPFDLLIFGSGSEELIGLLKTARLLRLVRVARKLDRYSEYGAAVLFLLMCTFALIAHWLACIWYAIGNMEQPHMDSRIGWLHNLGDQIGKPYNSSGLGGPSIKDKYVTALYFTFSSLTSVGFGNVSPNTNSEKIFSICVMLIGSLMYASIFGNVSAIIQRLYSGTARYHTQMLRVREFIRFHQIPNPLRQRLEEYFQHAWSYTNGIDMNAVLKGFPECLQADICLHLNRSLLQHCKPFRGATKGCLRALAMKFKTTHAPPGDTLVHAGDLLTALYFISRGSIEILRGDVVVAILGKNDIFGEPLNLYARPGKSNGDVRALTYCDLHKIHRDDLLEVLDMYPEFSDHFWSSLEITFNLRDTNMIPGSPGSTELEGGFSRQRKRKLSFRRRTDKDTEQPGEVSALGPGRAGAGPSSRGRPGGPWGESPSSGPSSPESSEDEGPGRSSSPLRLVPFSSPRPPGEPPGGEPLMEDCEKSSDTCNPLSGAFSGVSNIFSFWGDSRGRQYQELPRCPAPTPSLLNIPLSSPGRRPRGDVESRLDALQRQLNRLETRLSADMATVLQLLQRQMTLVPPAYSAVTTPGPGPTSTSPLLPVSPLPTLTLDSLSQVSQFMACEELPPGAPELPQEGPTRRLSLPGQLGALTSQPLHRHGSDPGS
hROMK, sequence (P48048 whole entry): as the sequence (P48048 whole entry) above

| Structure (SMILES) | inhibition at 1 µM [1] [%] | IC50 [2] [nM] | IC50 [3] [nM] |
| --- | --- | --- | --- |
| Cc1nc(-n2cc(CNC[C@H](O)c3ccc4c(c3C)COC4=O)cn2)ncc1C#N (single isomer, unassigned) [Example 50] | 8.5 | 49 | 45 |
| COc1cc(-n2cc(CNC(C)C(O)c3ccc4c(c3C)COC4=O)nn2)ncc1C#N (single isomer, unassigned) [Example 91-I, 6-(4-(((1-hydroxy-1-(4-methyl-1-oxo-1,3-dihydroisobenzofuran-5-yl)propan-2-yl)amino)methyl)-1H-1,2,3-triazol-1-yl)-4-methoxynicotinonitrile] | 19 | 11 | 21 |
| Cc1c(C(O)CN(C)Cc2ccc(-c3ccc4oc(=O)n(C)c4c3)nc2)ccc2c1COC2=O (stereo not drawn) [Example 1-I, 5-(5-(((2-hydroxy-2-(4-methyl-1-oxo-1,3-dihydroisobenzofuran-5-yl)ethyl)(methyl)amino)methyl)pyridin-2-yl)-3-methylbenzo[d]oxazol-2(3H)-one] | 8.7 | 19 | 170 |
| Cc1c(C(O)CNCc2ccc3c(ccn3-c3ccc4c(c3)COC4=O)c2)ccc2c1COC2=O (stereo not drawn) [Example 8-I, 5-(1-hydroxy-2-(((1-(1-oxo-1,3-dihydroisobenzofuran-5-yl)-1H-indol-5-yl)methyl)amino)ethyl)-4-methylisobenzofuran-1(3H)-one] | 83 | 42 | 290 |
| Cc1c([C@@H](O)CNCc2cnc(-n3c(C)nnc3C)nc2)ccc2c1COC2=O [Example 47, (R)-5-(2-(((2-(3,5-dimethyl-4H-1,2,4-triazol-4-yl)pyrimidin-5-yl)methyl)amino)-1-hydroxyethyl)-4-methylisobenzofuran-1(3H)-one] | 9.7 | 420 | 100 |
| COc1cc(-n2cnc(CNC[C@H](O)c3ccc4c(c3C)COC4=O)c2)ncc1C#N [Example 51, (R)-6-(4-(((2-hydroxy-2-(4-methyl-1-oxo-1,3-dihydroisobenzofuran-5-yl)ethyl)amino)methyl)-1H-imidazol-1-yl)-4-methoxynicotinonitrile] | 3.4 | 38 | 73 |
| Cc1cc(-n2cc(CNC[C@H](NS(C)(=O)=O)c3ccc4c(c3C)COC4=O)cn2)ncc1C#N [Example 61, (R)-N-(2-(((1-(5-cyano-4-methylpyridin-2-yl)-1H-pyrazol-4-yl)methyl)amino)-1-(4-methyl-1-oxo-1,3-dihydroisobenzofuran-5-yl)ethyl)methanesulfonamide] | 8.4 | 27 | 27 |
| COc1nc(-n2cc(CNC[C@H](O)c3ccc4c(c3C)COC4=O)nn2)cc(C)c1C#N [Example 67, (R)-6-(4-(((2-hydroxy-2-(4-methyl-1-oxo-1,3-dihydroisobenzofuran-5-yl)ethyl)amino)methyl)-1H-1,2,3-triazol-1-yl)-2-methoxy-4-methylnicotinonitrile] | 11 | 9.3 | 20 |
| Cc1cc(-n2cc(CNC[C@H](O)c3ccc4c(c3C)COC4=O)nn2)nc(C)c1C#N [Example 69, (R)-6-(4-(((2-hydroxy-2-(4-methyl-1-oxo-1,3-dihydroisobenzofuran-5-yl)ethyl)amino)methyl)-1H-1,2,3-triazol-1-yl)-2,4-dimethylnicotinonitrile] | 15 | 6.1 | 14 |
| Cc1nc(-n2cc(CNC[C@H](O)c3ccc4c(c3C)COC4=O)cn2)nc(C)c1C#N [Example 87, (R)-2-(4-(((2-hydroxy-2-(4-methyl-1-oxo-1,3-dihydroisobenzofuran-5-yl)ethyl)amino)methyl)-1H-pyrazol-1-yl)-4,6-dimethylpyrimidine-5-carbonitrile] | 7.5 | 71 | 40 |
| Cc1nn(-c2ncc(CNC[C@H](O)c3ccc4c(c3C)COC4=O)cn2)cc1C#N [Example 105, (R)-1-(5-(((2-hydroxy-2-(4-methyl-1-oxo-1,3-dihydroisobenzofuran-5-yl)ethyl)amino)methyl)pyrimidin-2-yl)-3-methyl-1H-pyrazole-4-carbonitrile] | 3.4 | 7.8 | 11 |
| Cc1cn(-c2ncc(CNC[C@H](O)c3ccc4c(c3C)COC4=O)cn2)cn1 [Example 106, (R)-5-(1-hydroxy-2-(((2-(4-methyl-1H-imidazol-1-yl)pyrimidin-5-yl)methyl)amino)ethyl)-4-methylisobenzofuran-1(3H)one] | 2.4 | 9.2 | 26 |
| Cc1cn(-c2ccc(CNC[C@H](O)c3ccc4c(c3C)COC4=O)cn2)cn1 [Example 108, (R)-5-(1-hydroxy-2-(((6-(4-methyl-1H-imidazol-1-yl)pyridin-3-yl)methyl)amino)ethyl)-4-methylisobenzofuran-1(3H)-one] | 7.3 | 19 | 35 |
| Cc1c([C@@H](O)CNCc2cnc(-n3cc(C#N)c(C(F)F)n3)nc2)ccc2c1COC2=O [Example 115, (R)-3-(difluoromethyl)-1-(5-(((2-hydroxy-2-(4-methyl-1-oxo-1,3-dihydroisobenzofuran-5-yl)ethyl)amino)methyl)pyrimidin-2-yl)-1H-pyrazole-4-carbonitrile] | 12 | 20 | 20 |
| COc1cc(-c2ccc(CNC[C@H](O)c3ccc4c(c3C)COC4=O)cn2)ncc1C#N [Example 130, (R)-5′-(((2-hydroxy-2-(4-methyl-1-oxo-1,3-dihydroisobenzofuran-5-yl)ethyl)amino)methyl)-4-methoxy-[2,2′-bipyridine]-5-carbonitrile] | 32 | 1.1 | 8.3 |
| Cc1c([C@@H](O)CNC(=O)c2cnc(-c3ccc4oc(=O)n(C)c4c3)s2)ccc2c1COC2=O [Example 136, (R)-N-(2-hydroxy-2-(4-methyl-1-oxo-1,3-dihydroisobenzofuran-5-yl)ethyl)-2-(3-methyl-oxo-2,3-dihydrobenzo[d]oxazol-5-yl)thiazole-5-carboxamide] | 15 | 86 | 70 |
| COc1cc(-c2cc(CNC[C@H](O)c3ccc4c(c3C)COC4=O)on2)ncc1C#N [Example 137, (R)-6-(5-(((2-hydroxy-2-(4-methyl-1-oxo-1,3-dihydroisobenzofuran-5-yl)ethyl)amino)methyl)isoxazol-3-yl)-4-methoxynicotinonitrile] | 7.6 | 26 | 35 |
| COc1cc(-n2cc(CNC[C@H](O)c3ccc4c(c3C)COC4=O)nn2)ncc1C#N [Example 138, (R)-6-(4-(((2-hydroxy-2-(4-methyl-1-oxo-1,3-dihydroisobenzofuran-5-yl)ethyl)amino)methyl)-1H-1,2,3-triazol-1-yl)-4-methoxynicotinonitrile] | 10 | 18 | 43 |
| Cc1c([C@@H](O)CNCc2cn(-c3ccc4oc(=O)n(C)c4c3)nn2)ccc2c1COC2=O [Example 139, (R)-5-(4-(((2-hydroxy-2-(4-methyl-1-oxo-1,3-dihydroisobenzofuran-5-yl)ethyl)amino)methyl)-1H-1,2,3-triazol-1-yl)-3-methylbenzo[d]oxazol-2(3H)-one] | 5.9 | 24 | 55 |
| Cc1cc(-c2cc(CNC[C@H](O)c3ccc4c(c3C)COC4=O)on2)ncc1C#N [Example 140, (R)-6-(5-(((2-hydroxy-2-(4-methyl-1-oxo-1,3-dihydroisobenzofuran-5-yl)ethyl)amino)methyl)isoxazol-3-yl)-4-methylnicotinonitrile] | 8.6 | 16 | 56 |
| Cc1c([C@@H](O)CNCc2ccc(-n3cc(C#N)cn3)nc2)ccc2c1COC2=O [Example 177] | 98 | 0.15 | 0.57 |
| Cc1nn(-c2ccc(CNC[C@H](O)c3ccc4c(c3C)COC4=O)cn2)cc1C#N [Example 178, (R)-1-(5-(((2-hydroxy-2-(4-methyl-1-oxo-1,3-dihydroisobenzofuran-5-yl)ethyl)amino)methyl)pyridin-2-yl)-3-methyl-1H-pyrazole-4-carbonitrile] | 36 | 2.1 | 3.6 |
